Reference: patent US20220175764A1 (priority 2019, published 2022)
“Also recorded” adds a separate entry of the source.

How the values were obtained:
[1] = system: DIAMOND™ mice; format: in vivo; settings: 150 mg/kg oral gavage; arm terminated early
Method: 8 mice gavaged with Curcumin at a dose of 150 mg/kg.
8 mice dosed from week 8 (t=8) until week 20 (t=20) on the Western Diet Sugar Water with once (1×) daily oral gavage with curcumin 150 mg/kg.

[2] = system: DIAMOND™ mice; experiment: Blood glucose and ketones from tail nick (Example 2); format: in vivo, mouse; settings: at necropsy
Method: Following completion of the dosing period on t=20, the mice were placed into a clean cage and fasted for six (6) hours prior to euthanasia. Animals were euthanized by exposing them to carbon dioxide as an anesthetic followed by cardiac puncture for exsanguination. Cervical dislocation was performed as a secondary means of euthanasia. A volume of 3-5 μl of whole blood were collected from a tail nick premortem and used for glucose and ketone testing. A second volume of 300-500 μl of blood collected at euthanasia were processed to serum, aliquoted into small vials and flash frozen in liquid nitrogen for further tests including liver function and lipid tests as per study protocol. Remaining serum was stored frozen for further possible testing.
• a. Immediately prior to euthanasia a tail nick was performed. Whole blood was used to measure ketones and glucose. • b. Euthanasia—The mice were placed into a clean cage and fasted for 6 hours prior to euthanasia. Blood collection took place during euthanasia via cardiac puncture. The blood was collected into micro-serum separator tubes and processed to serum by centrifugation under 4 degrees Celsius for 15 minutes at 5,000 RMP, aliquoted in 100 μl aliquots, and serum flash frozen. Serum samples were stored frozen at −80° C. until use. […]

[3] = system: DIAMOND™ mice; experiment: Gut permeability by serum dextran competitive ELISA after 4 kDa dextran gavage, WDSW-fed DIAMOND mice (Example 1); format: in vivo, mouse; settings: for Western Diet-induced GP (conclusion): Example 1 conclusion
Method: Pioglitazone was dosed at 30 mg/kg for the entire 12 weeks. Gut permeability (GP) was assessed twice at 12 weeks and 20 weeks by measuring dextran absorption into the bloodstream using a competitive enzyme-linked immunosorbent assay (ELISA) with 20 μL of serum collected by tail nick. Mice were gavaged with 4 kDa dextran at 600 mg/kg; the more permeable the gut, the more dextran is detected in serum. Results between dose groups were compared using Student's 2-tailed t-test, and pair-wise analysis was performed on serial measurements from week-12 to week-20 to assess drug impact on progression of GP over time. Serum and liver tissues were collected at necropsy, formalin-fixed, paraffin-embedded (FFPE) slides stained with H&E and Sirius Red, and liver pathology was assessed.

[4] = system: DIAMOND™ mice; experiment: Leaky gut assay / Dextran Assay - gut permeability at week 12 and week 20 (Example 2); format: in vivo, mouse; settings: for GP at week-12 compared to vehicle control (Arm-5): after 4 weeks of treatment; for GP at week-20 compared to vehicle control: after 12 weeks of treatment; for GP week-20 vs week-12: mice with data at both time points, paired t-test
Method: At 8 weeks on diet (t=8), mice were randomized into experimental groups based on the most recent body weight. […] Gut integrity/permeability was measured with the leaky gut assay on week 12 (one month on test article treatment) and on week 20 immediately prior to sacrifice. At each assay time point, between 0.2 ml and 0.4 ml of 4 kDa dextran solution (2 g/10 ml PBS solution, 0.2 g/mL) was orally gavaged to mice. After 4 hours, blood was collected from the tail vein and processed to serum. Dextran concentration in samples was measured by ELISA.
Gut integrity/permeability was measured with the leaky gut assay at two time points (12-week and 20-week) by competitive Dextran ELISA, 4 weeks after initial drug dosing with test article or vehicles, and immediately prior to sacrifice. Fresh fecal pellets were collected prior to each assay and placed into RNAlater and frozen (for possible future gut microbiome analysis).
• a. The leaky gut assay was performed at week 12 (one month on treatment) and immediately prior to sacrifice. • b. The procedure for the dextran was as follow: • i. 2 g of 4 kD dextran was weighed into a static free weigh dish. • ii. The dextran was mixed into a 10 ml of PBS solution. • iii. Between 0.2 ml and 0.4 ml of dextran solution was orally gavaged into mice. Each mouse staggered by 10 minutes to maintain blood dextran consistency during blood collection. • iv. 4 hours post gavage lidocaine applied to the tails of the mice in the order that they were gavaged. • v. The mice were lightly restrained in a mouse restraint device. • vi. After 5 minutes 70% alcohol was applied to a cotton swab and used to wipe off the lidocaine. • vii. Sterile scissors were used to perform a tail nick. • viii. 140 μl of whole blood was collected into a capillary tube. • ix. The capillary tubes were spun at 3,000 RPM for 8 minutes. • x. The capillary tubes were broken at the supernatant line and the serum was blown into an Eppendorf tube and snap frozen in liquid nitrogen.

[5] = system: DIAMOND™ mice; experiment: Liver weight at necropsy (Example 2); format: in vivo, mouse; settings: week 20
Method: Body weight and liver weight at time of euthanasia were recorded. Any abnormal gross anatomy signs on the body or liver would have been noted. […] The liver was processed into sections.

[6] = system: DIAMOND™ mice; experiment: Serum lipid profile, Alere Cholestech LDX (Example 2); format: in vivo, mouse; settings: serum at necropsy
Method: (§1) Lipid (total cholesterol, LDL, HDL, triglycerides, HDL calc.) and hepatic (ALB, AST, ALT, Alk, Phos, BUN, GGT, T Bil) panels were performed as described below. Due to natural variations in mice physiology extra serum might not be available to repeat testing.
40-50 microliters of thawed serum were placed into the sample well of an AL-10-991 test cassette, then the test cassette placed into the Alere Cholestech LDX blood lipid analyzer. The Alere Cholestech is FDA approved and CLIA waived for human use at POC and is used by numerous drug companies and CROs in preclinical studies because it only requires a small amount of blood. It may be used with whole blood, serum or plasma for humans, but mouse blood clots much faster and so whole blood in our experience has a higher failure rate. We therefore used serum.
Readouts were: • 1. Total cholesterol (T-chol) • 2. Triglycerides (TRIGS) (45 lower LOD) • 3. Glucose (standard range) • 4. HDL (100 upper LOD) • 5. LDL (calculated T-Chol—HDL)

[7] = system: DIAMOND™ mice; experiment: Liver histology scoring, H&E and Sirius Red (Example 2); format: in vivo, mouse
Method: Liver samples were fixed in 10% neutral buffered formalin for 36-48 hours depending on the size of the sample before being placed into 70% alcohol. The samples were then processed into FFPE blocks. The FFPE blocks were sectioned and three (3) slides were cut per block and submitted for H&E and Sirius Red staining, and subsequent histology analysis. The samples' identity was blinded at the time of shipment for unbiased scoring.
Slide evaluation and scoring include NAS component scoring (fibrosis, steatosis grade and percentage, inflammation, ballooning), NAS score, SAF activity score, Fibrosis NASH CRN Score, Perisinusoidal Fibrosis score, and NASH category score. A histopathology sub-report is to be prepared containing scores and representative photographic images from each group.

[8] = system: DIAMOND™ mice; experiment: Serum LFT / hepatic panel, Abaxis VS2 (Example 2); format: in vivo, mouse; settings: serum at necropsy
Method: as §1
Abaxis VS2 blood chemistry analyzers were used for measuring LFTs. This instrument is FDA approved for veterinary use, CLIA waived, and self-calibrating. It is the equivalent instrument to the Abaxis Piccolo instrument for human diagnostic testing. Phenobarbital test rotors (catalog #500-0049) were used which measure AST, ALT, ALP, GGT, ALB, and Total Bilirubin. The reactions are colorimetric, read automatically by the VS2 instrument, and results printed on a sticker which is attached to the necropsy specimen sheet and then entered into Excel. A minimum of 100 microliters of sample is needed for this test rotor, which may be either undiluted serum or diluted serum, in a ratio of 1:1 50 microliters of serum: 50 microliters of PBS without affecting accuracy of measurement of analytes. Significant hemolysis may render samples un-readable.

[9] = system: Staphylococcus, Streptococcus, Enterococcus, and Enterobacteriaceae; settings: species of Staphylococcus; cited from earlier work
[10] = Results Analysis 1, pair-wise analysis
[11] = Results Analysis 2, Week 12, after 4 weeks of treatment
[12] = Results Analysis 2, Week 20, after 12 weeks of treatment
[13] = end of study, listed as Vitamin-E

| SMILES | Ketones blood level vs vehicle control (Arm-5) [2] | Western Diet-induced GP (conclusion) [3] | mean serum dextran concentration [3, 11] | serum dextran concentration (significance) ([3]; Results Analysis 2, Week 20) | mean serum dextran concentration [3, 12] | GP at week-12 compared to vehicle control (Arm-5) [4] | GP at week-20 compared to vehicle control [4] | GP week-20 vs week-12 [4] | liver weight vs Vehicle Control (Arm-5) [5] | triglycerides vs vehicle control (Arm-5) [6] | BUN vs Vehicle control groups (Arm-5 and Arm-10) [8] | fold reduction in mean serum dextran concentration compared with vehicle ([3]; Results Analysis 2, Week 20) | prevalence of NASH (disease category) ([7]; end of study) | also measured |
| --- | --- | --- | --- | --- | --- | --- | --- | --- | --- | --- | --- | --- | --- | --- |
| COc1cc(/C=C/C(=O)CC(=O)/C=C/c2ccc(O)c(OC)c2)ccc1O [Curcumin] | – | – | – | – | – | – | – | – | – | – | – | – | – | mortality [1]: excess mortality |
| CO[C@H]1/C=C/O[C@@]2(C)Oc3c(C)c(O)c4c(O)c(c5c(nc6cc(C)ccn65)c4c3C2=O)NC(=O)/C(C)=C\C=C\[C@H](C)[C@H](O)[C@@H](C)[C@@H](O)[C@@H](C)[C@H](OC(C)=O)[C@@H]1C [Rifaximin] | slightly decreased; also recorded: decreased | dramatically improved | 151 µg/mL | significant reduction | 81.2 µg/mL | no changes | significantly lower GP | borderline significant | did not reduce liver weight | no effect | significantly increased | – | – | serum dextran average at 20 weeks [3, 10]: 85.9 µg/mL; serum dextran, 12-week average [3, 10]: 154.0 µg/mL; improvement of leaky gut in the 8 weeks between first and second measurement ([3]; Results Analysis 1, week 12 to week 20): 45%; improvement in leaky gut during the 8 weeks between assessments ([3]; Results Analysis 2, pair-wise, Week 12 to Week 20): 46.2%; triglycerides vs vehicle control (Arm-5) ([6]; listed as Arm-3): no significant effect; Liver steatosis % vs control Arm-5 ([7]; end of study): increased; also recorded: slight increase in steatosis; in vitro antibacterial activity [9]: active |
| CCc1ccc(CCOc2ccc(CC3SC(=O)NC3=O)cc2)nc1 (centres unmarked) [Pioglitazone] | – | – | 121 µg/mL | – | 71.8 µg/mL | – | – | – | – | – | significantly increased | 3.0 fold | – | steatosis-only (disease category) ([7]; end of treatment): 100% |
| Cc1c(C)c2c(c(C)c1O)CC[C@@](C)(CCC[C@H](C)CCC[C@H](C)CCCC(C)C)O2 [Vitamin E, a-tocopherol] | moved ketone levels up | – | – | – | – | no effect | no effect | Trending upward | lower | no effect | – | – | 38% | GP week-20 vs week-12 ([4]; listed as Vit. E): trends toward an increase in GP; triglycerides vs vehicle control (Arm-5) ([6]; listed as Arm-9): no significant effect; Lobular inflammation vs control Arm-5 ([7]; end of study): increase; NAFLD Activity Score (NAS) vs control Arm-5 ([7]; end of study): slight increase; Steatosis, Activity and Fibrosis (SAF) score vs control Arm-5 ([7]; end of study): slight increase; Lobular inflammation vs control Arm-5 [7, 13]: increased; NAFLD Activity Score (NAS) vs control Arm-5 [7, 13]: increased; Steatosis, Activity and Fibrosis (SAF) score vs control Arm-5 [7, 13]: increased; ALT vs control vehicles [8]: significantly increased; AST vs control vehicles [8]: significantly increased; Albumin vs vehicle control [8]: lower albumin; Albumin vs vehicle control ([8]; listed as Vitamin-E): decreased |
| C[N@+]1(CC2CC2)CC[C@]23c4c5ccc(O)c4O[C@H]2C(=O)CC[C@@]3(O)[C@H]1C5.[Br-] [MNTX, (R)-N-(cyclopropylmethyl) noroxymorphone methobromide] | – | dramatically improved | 91 µg/mL | significant reduction | 74.7 µg/mL | significantly lower GP | persists at week-20; also recorded: significantly lower GP | maintained | significantly lower liver weight | no significant effect | – | 2.9 fold | 38% | fold reduction of serum dextran compared to the VC group ([3]; Results Analysis 1, 12 week timepoint): 2.7 fold; serum dextran concentration ([3]; Results Analysis 1, 12 week timepoint, 4 weeks of treatment): 90.9 µg/mL; average serum dextran concentration, fold lower than the VC group ([3]; Results Analysis 1, 20 week timepoint, 12 weeks of treatment): 2 fold; fold reduction in mean serum dextran concentration compared with vehicle ([3]; Results Analysis 2, Week 12): 1.8 fold; serum dextran concentration relative to vehicle (significance) ([3]; Results Analysis 2, Week 12): significant reduction |
